The subject of data set [1] is inducible nitric oxide synthase (iNOS). Briefly: TNF-α-induced iNOS expression in chondrocytes. The class given is cell-based, porcine. The conditions noted are these: chondrocytes stimulated by TNF-α (5 ng/ml), after 48 hours, HS—Cf in different concentrations. The source says:
(§1) The following embodiments show suppression effect of HS—Cf on those factors involved in signaling pathways of TNF-α-induced IRF-1 expression and prevention effect of HS—Cf on TNF-mediated collagen loss and proteoglycan loss. All porcine chondrocytes used are obtained from the hind leg joints of pigs.
(§2) NO (nitric oxide) is generated by TNF-α-induced iNOS so that iNOS expression is correlated with NO production. HS—Cf in different concentrations are delivered to chondrocytes stimulated by TNF-α (5 ng/ml).

The test system of the next data set is NO (nitric oxide). Briefly: NO production in TNF-α-stimulated chondrocytes. It is filed as cell-based, porcine. The following applies: chondrocytes stimulated by TNF-α (5 ng/ml), after 48 hours, HS—Cf in different concentrations.
Excerpt: as §1, §2

Data set [2] relates to matrix metalloproteinase-1 (MMP-1). As to the kind of experiment: TNF-α-induced MMP-1 mRNA expression by Q-PCR. It is filed as cell-based. The conditions noted are these: porcine chondrocytes, HS—Cf 2 hours, then TNF-α (5 ng/ml) four hours. As for the experimental part: as §1
TNF-α-induced MMP-1 is one of the factors that damage and destroy cartilage. Mix HS—Cf in different concentrations with porcine chondrocytes and react for 2 hours. Then add TNF-α (5 ng/ml) to stimulate porcine chondrocytes for four hours. Next measure mRNA expression by real-time quantitative-polymerase chain reaction (Q-PCR).

For data set [3], the system named is matrix metalloproteinase-3 (MMP-3). As to the kind of experiment: TNF-α-induced MMP-3 mRNA expression by Q-PCR. The class given is cell-based. The following applies: porcine chondrocytes, HS—Cf 2 hours, then TNF-α (5 ng/ml) four hours. On the procedure: as §1
TNF-α-induced MMP-3 is one of the factors that damage and destroy cartilage. Mix HS—Cf in different concentrations with porcine chondrocytes and react for 2 hours. Then add TNF-α (5 ng/ml) to stimulate porcine chondrocytes for four hours. Next measure mRNA expression by real-time quantitative-polymerase chain reaction (Q-PCR).

In data set [4] the test system is matrix metalloproteinase-13 (MMP-13). As to the kind of experiment: TNF-α-induced MMP-13 mRNA expression by Q-PCR. The class given is cell-based. The conditions noted are these: porcine chondrocytes, HS—Cf 2 hours, then TNF-α (5 ng/ml) four hours. On the procedure:
as §1
Mix HS—Cf in different concentrations with porcine chondrocytes and react for 2 hours. Then add TNF-α (5 ng/ml) to stimulate cells for four hours. Next observe mRNA expression by real-time quantitative-polymerase chain reaction (Q-PCR).

For data set [5], the system named is ADAMTS-4, also called Aggrecanase-1. Briefly: TNF-α-induced ADAMTS-4 mRNA expression by Q-PCR. It is filed as cell-based. The following applies: porcine chondrocytes, HS—Cf 2 hours, then TNF-α (5 ng/ml) four hours. On the procedure:
as §1
TNF-α induced ADAMTS-4 is one of the factors that damage and destroy cartilage. Mix HS—Cf in different concentrations with porcine chondrocytes and react for 2 hours. Then add TNF-α (5 ng/ml) to stimulate cells for four hours. Next measure mRNA expression by Q-PCR.

Data set [6] concerns ADAMTS-5, also called Aggrecanase-2. Briefly: TNF-α-induced ADAMTS-5 mRNA expression by Q-PCR. The conditions noted are these: porcine chondrocytes, HS—Cf 2 hours, then TNF-α (5 ng/ml) four hours. It is filed as cell-based. On the procedure:
as §1
TNF-α induced ADAMTS-5 is one of the factors that damage and destroy cartilage. Mix HS—Cf in different concentrations with porcine chondrocytes and react for 2 hours. Then add TNF-α (5 ng/ml) to stimulate cells for four hours. Next observe mRNA expression by Q-PCR.

For another data set, the system named is collagen II. As to the kind of experiment: Loss prevention of collagen II under TNF-α stimulation, Western blot. It is filed as cell-based. The following applies: porcine chondrocytes, HS—Cf 24 hours, then TNF-α (5 ng/ml) 48 hours. As for the experimental part: as §1
As shown in the figure, after mixing porcine chondrocytes with TNF-α (5 ng/ml), the amount of collagen II at different times is determined by Western Blot. It is confirmed that collagen II is degraded and lost along with the time under TNF-α stimulation. […] Then add TNF-α (5 ng/ml) to stimulate porcine chondrocytes for 48 hours. Next use western blot to measure the amount of protein.
In general terms: Immunoblotting shows a protein as a band on a membrane.

The next data set relates to proteoglycan (aggrecan). Briefly: Loss prevention of proteoglycan under TNF-α stimulation, Safranin-O staining. It is filed as cell-based. The conditions noted are these: porcine chondrocytes, 5/or 10 μM HS—Cf 24 hours, then TNF-α (5 ng/ml) 72 hours. As for the experimental part:
as §1
Besides collagen II, loss of proteoglycan (aggrecan) is also affected by HS—Cf. […] Then add TNF-α (5 ng/ml) to stimulate porcine chondrocytes for 72 hours. Next use Safranin-O staining to observe the amount of proteoglycan in cartilaginous tissue.

Data set [7] relates to porcine chondrocytes. As to the kind of experiment: MTT cell viability assay. It is filed as cell-based. The following applies: any of the concentrations. The source says: (§3) Cytotoxicity of HS—Cf also has been checked. HS—Cf is used as a pharmaceutical composition so that cytotoxicity of HS—Cf has to be carefully considered for determining whether HS—Cf can be used for treatment of osteoarthritis. […] Thus HS—Cf is used in treatment of organisms.
For orientation: Formazan colour is commonly taken as a measure of viable cells.

Data set [8] has as its system porcine chondrocytes. Briefly: lactate dehydrogenase (LDH) assay. The class given is cell-based. The following applies: any of the concentrations.
Excerpt: as §3

Molecules are shown by their SMILES.

Take `O=C(Nc1cccc(C(F)(F)F)c1)c1ccccc1O` [HS—Cf, 2-hydroxy-N-[3-(trifluoromethyl)phenyl]benzamide]: the iNOS expression entry in [1] is recorded as “significantly decreases iNOS expression at higher concentration”. The NO production entry with NO (nitric oxide) was “NO production is also reduced along with the increasing concentration”. For the same molecule, the “MMP-1 mRNA expression” value in data set [2] was “MMP-1 expression is decreased along with the increasing concentration”. The “MMP-3 mRNA expression” value in [3] was “decreases MMP-3 expression at higher concentration”. The “MMP-13 mRNA expression” value in data set [4] is “MMP-13 expression is decreased along with the increasing concentration”. Moreover, the “ADAMTS-4 mRNA expression” value in [5] was “ADAMTS-4 expression is decreased along with the increasing concentration”. Moreover, the “ADAMTS-5 mRNA expression” value in data set [6] is listed as “ADAMTS-5 expression is decreased along with the increasing concentration”. Also, the “degradation and loss of collagen II” value in the data set on collagen II is “degradation and loss of collagen II is under control”. The “degradation and loss of proteoglycan” value in the data set with proteoglycan (aggrecan) is “degradation and loss of proteoglycan is under control”. Also, the “cytotoxicity (MTT cell viability assay)” value with porcine chondrocytes [7] is “no obvious cytotoxic effect”. Moreover, the “cytotoxicity (LDH assay)” value in the data set with porcine chondrocytes [8] is listed as “no obvious cytotoxic effect”.
